Laboratory results: PubChem BioAssay (NCI)
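96-well plates; 48 h exposure; 5 concentrations. Endpoints by linear interpolation between flanking doses. Not reached: highest tested concentration assigned. TGI denotes the concentration required for complete inhibition of growth.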

Tests used:
Experiment in all cases: inhibition of tumour cell growth, NCI panel, 48 h
HCT-116 colon = tested on: HCT-116 colon
SK-MEL-28 melanoma = tested on: SK-MEL-28 melanoma
DLD-1 colon = tested on: DLD-1 colon
ACHN renal = tested on: ACHN renal
SNB-19 CNS = tested on: SNB-19 CNS
CCRF-CEM leukemia = tested on: CCRF-CEM leukemia
OVCAR-3 ovarian = tested on: OVCAR-3 ovarian
SK-MEL-5 melanoma = tested on: SK-MEL-5 melanoma
HL-60(TB) leukemia = tested on: HL-60(TB) leukemia
SNB-75 CNS = tested on: SNB-75 CNS
LXFL 529 NSCLC = tested on: LXFL 529 NSCLC
SW-620 colon = tested on: SW-620 colon
NCI-H23 lung = tested on: NCI-H23 lung
NCI-H460 lung = tested on: NCI-H460 lung
EKVX NSCLC = tested on: EKVX NSCLC
COLO 205 colon = tested on: COLO 205 colon
MALME-3M melanoma = tested on: MALME-3M melanoma
A498 renal = tested on: A498 renal
MOLT-4 leukemia = tested on: MOLT-4 leukemia
A549 NSCLC = tested on: A549 NSCLC
HCT-15 colon = tested on: HCT-15 colon
SF-268 CNS = tested on: SF-268 CNS
RPMI-8226 leukemia = tested on: RPMI-8226 leukemia
SN12C renal = tested on: SN12C renal
SNB-78 CNS = tested on: SNB-78 CNS
M19-MEL melanoma = tested on: M19-MEL melanoma
DMS 273 small cell lung = tested on: DMS 273 small cell lung
DMS 114 small cell lung = tested on: DMS 114 small cell lung
SF-295 CNS = tested on: SF-295 CNS
IGROV1 ovarian = tested on: IGROV1 ovarian
NCI-H226 lung = tested on: NCI-H226 lung
TK-10 renal = tested on: TK-10 renal
LOX IMVI melanoma = tested on: LOX IMVI melanoma
RXF 393 renal = tested on: RXF 393 renal
HOP-62 NSCLC = tested on: HOP-62 NSCLC
UACC-62 melanoma = tested on: UACC-62 melanoma
HOP-92 NSCLC = tested on: HOP-92 NSCLC
M14 melanoma = tested on: M14 melanoma
K-562 leukemia = tested on: K-562 leukemia
KM20L2 colon = tested on: KM20L2 colon
U251 CNS = tested on: U251 CNS
HT29 colon = tested on: HT29 colon
RXF-631 renal = tested on: RXF-631 renal
UACC-257 melanoma = tested on: UACC-257 melanoma
SR leukemia = tested on: SR leukemia
SF-539 CNS = tested on: SF-539 CNS
SK-OV-3 ovarian = tested on: SK-OV-3 ovarian
KM12 colon = tested on: KM12 colon
SK-MEL-2 melanoma = tested on: SK-MEL-2 melanoma
OVCAR-8 ovarian = tested on: OVCAR-8 ovarian
OVCAR-5 ovarian = tested on: OVCAR-5 ovarian
UO-31 renal = tested on: UO-31 renal
OVCAR-4 ovarian = tested on: OVCAR-4 ovarian
HCC-2998 colon = tested on: HCC-2998 colon
XF 498 CNS = tested on: XF 498 CNS
CAKI-1 renal = tested on: CAKI-1 renal
NCI-H522 lung = tested on: NCI-H522 lung
786-0 renal = tested on: 786-0 renal

Nc1nc(Cl)cc(NCCCCO)n1
TGI (HCT-116 colon): > 100 µM | TGI (SK-MEL-28 melanoma): > 100 µM | TGI (DLD-1 colon): > 100 µM | TGI (ACHN renal): > 100 µM | TGI (SNB-19 CNS): > 100 µM | TGI (CCRF-CEM leukemia): > 100 µM | TGI (OVCAR-3 ovarian): > 10 µM | TGI (SK-MEL-5 melanoma): > 100 µM | TGI (HL-60(TB) leukemia): > 100 µM | TGI (SNB-75 CNS): > 100 µM | TGI (LXFL 529 NSCLC): > 100 µM | TGI (SW-620 colon): > 100 µM | TGI (NCI-H23 lung): > 100 µM | TGI (NCI-H460 lung): > 100 µM | TGI (EKVX NSCLC): > 100 µM | TGI (COLO 205 colon): > 100 µM | TGI (MALME-3M melanoma): > 100 µM | TGI (A498 renal): > 100 µM | TGI (MOLT-4 leukemia): > 100 µM | TGI (A549 NSCLC): > 100 µM | TGI (HCT-15 colon): > 100 µM | TGI (SF-268 CNS): > 100 µM | TGI (RPMI-8226 leukemia): > 100 µM | TGI (SN12C renal): > 100 µM | TGI (SNB-78 CNS): > 100 µM | TGI (M19-MEL melanoma): > 100 µM | TGI (DMS 273 small cell lung): > 100 µM | TGI (DMS 114 small cell lung): > 100 µM | TGI (SF-295 CNS): > 100 µM | TGI (IGROV1 ovarian): > 100 µM | TGI (NCI-H226 lung): > 100 µM | TGI (TK-10 renal): > 100 µM | TGI (LOX IMVI melanoma): > 100 µM | TGI (RXF 393 renal): > 100 µM | TGI (HOP-62 NSCLC): > 10 µM | TGI (UACC-62 melanoma): > 100 µM | TGI (HOP-92 NSCLC): > 100 µM | TGI (M14 melanoma): > 10 µM | TGI (K-562 leukemia): > 100 µM | TGI (KM20L2 colon): > 100 µM | TGI (U251 CNS): > 100 µM | TGI (HT29 colon): > 100 µM | TGI (RXF-631 renal): > 100 µM | TGI (UACC-257 melanoma): > 100 µM | TGI (SR leukemia): > 100 µM | TGI (SF-539 CNS): > 100 µM | TGI (SK-OV-3 ovarian): > 100 µM | TGI (KM12 colon): > 100 µM | TGI (SK-MEL-2 melanoma): > 100 µM | TGI (OVCAR-8 ovarian): > 100 µM | TGI (OVCAR-5 ovarian): > 100 µM | TGI (UO-31 renal): > 100 µM | TGI (OVCAR-4 ovarian): > 100 µM | TGI (HCC-2998 colon): > 100 µM

O=c1[nH]nc2c3n[nH]c(=O)n3c3ccccc3n12
TGI (HCT-116 colon): > 100 µM | TGI (SK-MEL-28 melanoma): > 100 µM | TGI (DLD-1 colon): > 100 µM | TGI (ACHN renal): > 100 µM | TGI (SNB-19 CNS): > 100 µM | TGI (CCRF-CEM leukemia): > 100 µM | TGI (OVCAR-3 ovarian): > 100 µM | TGI (SK-MEL-5 melanoma): > 100 µM | TGI (SNB-75 CNS): > 100 µM | TGI (LXFL 529 NSCLC): > 100 µM | TGI (SW-620 colon): > 100 µM | TGI (NCI-H23 lung): > 100 µM | TGI (NCI-H460 lung): > 100 µM | TGI (EKVX NSCLC): > 100 µM | TGI (XF 498 CNS): > 100 µM | TGI (COLO 205 colon): > 100 µM | TGI (MALME-3M melanoma): > 100 µM | TGI (A498 renal): > 100 µM | TGI (MOLT-4 leukemia): > 100 µM | TGI (A549 NSCLC): > 100 µM | TGI (HCT-15 colon): > 100 µM | TGI (SF-268 CNS): > 100 µM | TGI (RPMI-8226 leukemia): > 100 µM | TGI (CAKI-1 renal): > 100 µM | TGI (SN12C renal): > 100 µM | TGI (SNB-78 CNS): > 100 µM | TGI (M19-MEL melanoma): > 100 µM | TGI (DMS 273 small cell lung): > 100 µM | TGI (DMS 114 small cell lung): > 100 µM | TGI (SF-295 CNS): > 100 µM | TGI (IGROV1 ovarian): > 100 µM | TGI (NCI-H226 lung): > 100 µM | TGI (NCI-H522 lung): > 100 µM | TGI (TK-10 renal): > 100 µM | TGI (LOX IMVI melanoma): > 100 µM | TGI (RXF 393 renal): > 100 µM | TGI (HOP-62 NSCLC): > 100 µM | TGI (UACC-62 melanoma): > 100 µM | TGI (HOP-92 NSCLC): > 100 µM | TGI (M14 melanoma): > 100 µM | TGI (K-562 leukemia): > 100 µM | TGI (KM20L2 colon): > 100 µM | TGI (U251 CNS): > 100 µM | TGI (HT29 colon): > 100 µM | TGI (RXF-631 renal): > 100 µM | TGI (UACC-257 melanoma): > 100 µM | TGI (786-0 renal): > 100 µM | TGI (SF-539 CNS): > 100 µM | TGI (SK-OV-3 ovarian): > 100 µM | TGI (KM12 colon): > 100 µM | TGI (SK-MEL-2 melanoma): > 100 µM | TGI (OVCAR-8 ovarian): > 100 µM | TGI (OVCAR-5 ovarian): > 100 µM | TGI (UO-31 renal): > 100 µM | TGI (OVCAR-4 ovarian): > 100 µM | TGI (HCC-2998 colon): > 100 µM
